According to patent publication US9187467B2, “2-phenyl benzothiazole linked imidazole compounds as potential anticancer agents and process for the preparation thereof” (Council of Scientific and Industrial Research, priority 2012, dated 2015):

Tests used:
[1] = system: M14; assay: SRB anticancer assay, melanoma; format: cell-based, human; set-up: Log10GI50: unit not given here; settings: for GI50: Homo sapiens, M14, 48 h; for Log10GI50: M14, present compounds
[2] = system: COLO 205; assay: SRB anticancer assay, colon; format: cell-based, human; settings: Homo sapiens, COLO 205, 48 h
[3] = system: HOP-92; assay: SRB anticancer assay, non-small lung; format: cell-based, human; set-up: Log10GI50: unit not given here; settings: for Log10GI50: HOP-92, present compounds; for GI50: Homo sapiens, HOP-92, 48 h
[4] = system: MDA-MB-435; assay: SRB anticancer assay, melanoma; format: cell-based, human; set-up: Log10GI50: unit not given here; settings: for GI50: Homo sapiens, MDA-MB-435, 48 h; for Log10GI50: MDA-MB-435, present compounds
[5] = system: HCC-2998; assay: SRB anticancer assay, colon; format: cell-based, human; settings: Homo sapiens; HCC-2998, 48 h
[6] = system: CAKI-1; assay: SRB anticancer assay, renal; format: cell-based, human; set-up: Log10GI50: unit not given here; settings: for GI50: Homo sapiens, CAKI-1, 48 h; for Log10GI50: CAKI-1, present compounds
[7] = system: HOP-62; assay: SRB anticancer assay, non-small lung; format: cell-based, human; settings: for Log10GI50: HOP-62, present compounds; for GI50: Homo sapiens, HOP-62, 48 h
[8] = system: RPMI-8226; assay: SRB anticancer assay, leukemia; format: cell-based; settings: Homo sapiens, RPMI-8226, 48 h
[9] = system: HCT-15; assay: SRB anticancer assay, colon; format: cell-based, human; settings: Homo sapiens, HCT-15, 48 h
[10] = system: MDA-MB-468; assay: SRB anticancer assay, breast; format: cell-based, human; set-up: unit not given here; settings: present compounds
[11] = system: CCRF-CEM; assay: SRB anticancer assay, leukemia; format: cell-based, human; set-up: Log10GI50: unit not given here; settings: for GI50: Homo sapiens, 48 h; for Log10GI50: present compounds
[12] = system: EKVX; assay: SRB anticancer assay, non-small lung; format: cell-based, human; set-up: Log10GI50: unit not given here; settings: for GI50: Homo sapiens, 48 h; for Log10GI50: present compounds
[13] = system: microtubule network of MCF-7 cells; assay: Effect on microtubule network; format: cell-based; settings: 2 μM
Description: FIG. 2 represents effect of compound 7d, the effective compound on the microtubule network of MCF-7 cells untreated cells (Con), nocodazole (Noc) and 7d at 2 μM concentration. Microtubules and unassembled tubulin are shown in green and DNA was stained with nuclear dye DAPI (4,6-diamidino-2-phenylindole) is shown in blue colour.
Inhibition of tubulin is associated with G2/M cell cycle arrest by interrupting chromosome segregation and affecting mitotic spindle formation. […] It was considered of interest to understand the mechanism of anti-cancer activity of compound 7d with regard to interaction with microtubule system. MCF-7 breast cancer cells were treated with Nocodazole (Noc), 7d compounds at 2 μM concentration.

[14] = system: p21; assay: Western blot, apoptosis proteins in MCF-7 cells; format: cell-based; settings: 2 μM, 24h
Description: (§1) FIG. 3 represents effect of compound 7d and 7h on p21 and caspase-9. MCF-7 cells were treated with 2 μM concentration of compounds 7d and 7h for 24h. The cell lysates were collected and probed with anti-bodies against p21 and caspase-9. beta-actin was used as loading control. Con: Control (untreated).
(§2) Activation of tumor suppressor gene p21 was the important regulator of apoptotic pathway caused by various stimuli. In many instances the apoptotic cell death is mediated by caspases, thus the possible involvement of p21 and caspase protein and its role in apoptosis has been investigated. MCF-7 cells were treated with 7d, 7h (the effective compounds of cell cycle arrest) 21a, 21d and CA-4 at 2 μM concentration.

[15] = system: caspase-9; assay: Western blot, apoptosis proteins in MCF-7 cells; format: cell-based; settings: 2 μM, 24h
Description: as §1, §2

[16] = system: sixty human cancer cell lines; assay: SRB anticancer assay, all cell lines; format: cell-based; settings: all the cell lines; exposure at least 48 h

Row | SMILES | GI50 [1] [µM] | Log10GI50 [1] | GI50 [2] [µM] | Log10GI50 [3] | GI50 [3] [µM] | GI50 [4] [µM] | Log10GI50 [4] | GI50 [5] [µM] | GI50 [6] [µM] | GI50 [7] [µM] | GI50 [8] [µM] | GI50 [9] [µM] | Log10GI50 [10] | GI50 [11] [µM] | GI50 [12] [µM] | Log10GI50 [12] | Log10GI50 [6] | mean graph midpoint values (MG_MID) of log10LC50, range [16] | also measured
1 | COc1cc(-c2cncn2-c2ccc(-c3nc4ccc(F)cc4s3)cc2)ccc1F [Compound 4c, 6-Fluoro-2-(4-(5-(4-fluoro-3-methoxyphenyl)-1H-imidazol-1-yl)phenyl)benzo[d]thiazole] | 33.4 | −4.48 | 56.8 | −5.26 | 5.47 | 17.1 | −4.77 | > 100 | > 100 | 40.7 | 4.11 | 82.3 | −4.96 | 6.92 | – | – | – | – | Log10GI50 [7]: −4.39 log10 M; Log10GI50 [11]: −5.16
2 | COc1cc(OC)cc(-c2cncn2-c2ccc(-c3nc4cc(OC)c(OC)c(OC)c4s3)cc2)c1 [Compound 7d, 2-(4-(5-(3,5-Dimethoxyphenyl)-1H-imidazol-1-yl)phenyl)-5,6,7-trimethoxybenzo[d]thiazole] | – | – | 3.85 | >−4.0 | > 100 | 6.07 | −5.22 | > 100 | 3.79 | 26.4 | 2.9 | 5.72 | −4.97 | – | 1.87 | −5.73 | −5.42 | – | Log10GI50 [7]: −4.58 log10 M; microtubulin organization [13]: disrupted microtubulin organization; p21 protein (Western blot) [14]: increase; caspase-9 protein (Western blot) [15]: increase
3 | COc1cc(OC)c2sc(-c3ccc(-n4cncc4-c4cc(OC)c(OC)c(OC)c4)cc3)nc2c1 [Compound 6f, 5,7-Dimethoxy-2-(4-(5-(3,4,5-trimethoxyphenyl)-1H-imidazol-1-yl)phenyl)benzo[d]thiazole] | 7.91 | – | 4.51 | – | – | 3.41 | – | > 100 | – | 75.9 | 5.39 | 5.48 | – | 3.95 | 5.09 | – | – | −4.00 | mean graph midpoint values (MG_MID) of log10TGI, range [16]: −4.00
4 | COc1cc2nc(-c3ccc(-n4cncc4-c4ccc(N)cc4)cc3)sc2c(OC)c1OC [Compound 7h, 4-(1-(4-(5,6,7-Trimethoxybenzo[d]thiazol-2-yl)phenyl)-1H-imidazol-5-yl)benzenamine] | 2.1 | −5.68 | – | −6.35 | 0.446 | – | – | – | 1.41 | – | – | – | −5.74 | – | 2.49 | −5.60 | −5.85 | – | p21 protein (Western blot) [14]: increase; caspase-9 protein (Western blot) [15]: increase
5 | COc1cc(OC)cc(-c2cncn2-c2ccc(-c3nc4cc(OC)cc(OC)c4s3)cc2)c1 [Compound 6d, 2-(4-(5-(3,5-Dimethoxyphenyl)-1H-imidazol-1-yl)phenyl)-5,7-dimethoxybenzo[d]thiazole] | – | – | – | – | – | 1.53 | – | > 100 | 2.13 | 6.65 | – | – | – | – | – | – | – | −4.00 | –
6 | COc1cc(OC)c2sc(-c3ccc(-n4cncc4-c4ccc(OC)c(OC)c4)cc3)nc2c1 [Compound 6e, 2-(4-(5-(3,4-Dimethoxyphenyl)-1H-imidazol-1-yl)phenyl)-5,7-dimethoxybenzo[d]thiazole] | > 100 | – | – | – | – | – | – | > 100 | – | 35.5 | > 100 | > 100 | – | > 100 | – | – | – | −4.00 | –
7 | COc1ccc(-c2cncn2-c2ccc(-c3nc4cc(OC)c(OC)c(OC)c4s3)cc2)cc1N [Compound 7j, 2-Methoxy-5-(1-(4-(5,6,7-trimethoxybenzo[d]thiazol-2-yl)phenyl)-1H-imidazol-5-yl)benzeneamine] | 5.91 | −5.23 | 2.94 | – | – | 3.13 | −5.50 | – | 4.82 | – | – | 4.02 | −5.07 | 3.41 | 7.54 | −5.12 | −5.32 | −4.00 | Log10GI50 [11]: −5.47
